Source: patent US20240067665A1, “SMALL MOLECULES FOR BORON NEUTRON CAPTURE THERAPY” (Aviko Radiopharmaceuticals, LLC, priority 2022, published 2024)

Experiments:
Conditions in all cases: 100 uM
[1] = test system: U87-MG (glioblastoma); assay: Cell uptake assay, U87-MG cells; format: cell-based, human
Protocol: (§1) • 1.1.1 15 mL of cell culture medium was placed into a T225 flask. • 1.1.2 The flask was placed in a humidified 37° C., 5% CO2 incubator for 15 minutes to allow medium to equilibrate to the proper pH and temperature. • 1.1.3 The vial was removed from liquid nitrogen and thawed rapidly by placing at 37° C. in a water bath with gentle agitation for 1-2 minutes and then decontaminated by wiping with 70% ethanol before opening in a Class II biological safety cabinet. • 1.1.4 The vial contents were transferred dropwise into 10 mL of cell culture medium in a sterile 15 mL conical tube. • 1.1.5 The cells were centrifuged at 1,300 rpm for 5 minutes. • 1.1.6 The supernatant was aspirated and re-suspended the cells and transferred the cells into T225 flask containing cell culture medium.
(§2) • 1.2.1 Culture medium were renewed every 2-3 days. • 1.2.2 Keep the flask in a humidified 37° C., 5% CO2 incubator
(§3) • Cells were harvested and diluted in culture medium to the designated concentration. Then the cells were cultured in T25 flasks, one T25 flask for one sample. 2.2 Formulation of test compounds • 2.2.1 L-Boronophenylalanine (L-BPA, 4-boron-L-phenylalanine, Purity: 95%, Chemical formula: C9H12BNO4, MW: 209.01, CAS: 76410-58-7) and fructose were dissolved in PBS at a molar ratio of 1:5, and then a 1.27 M ratio of 1 N NaOH is added. The mixture was stirred until L-BPA is completely dissolved, and the pH value was titrated to 7.2-7.4 with 1 N HC1. • 2.2.2 For test compounds other than BPA, stock solutions were prepared of each compound in DMSO or fructose formulation at a concentration of 20 mM (such that final % DMSO in the cellular assay medium=0.5%) 2.3 Compound treatment • 2.3.1 The cells were seeded overnight (12-18 hours) to allow the cells to adhere well. • 2.3.2 The stock solution of each compound was added to each T25 flask such that the final concentration for each compound is 100 uM (0.1 mM). • 2.3.3 The flasks were placed in a 37° C., 5% CO2 incubator for 1 hour, 4 hours and 24 hours. • 2.3.4 After treatment for 1 hour, 4 hour, and 24 hours, the cells were collected by using 0.25% Trypsin with 0.53 mM EDTA. • 2.3.5 Centrifuged at 1,300 rpm for 5 min to collect cell pellets.

[2] = test system: B16F10; assay: Cell uptake assay, B16F10 cells; format: cell-based, mouse
Protocol: as §1, §2, §3

[3] = test system: NIH-3T3; assay: Cell uptake assay, NIH-3T3 cells; format: cell-based, mouse
Protocol: as §1, §2, §3

[4] = test system: SAS (head & neck cancer); assay: Cell uptake assay, SAS cells; format: cell-based, human
Protocol: as §1, §2, §3

Structure (SMILES) | Cell uptake, Mean, U87-MG ([1]; 1 hour) | Cell uptake, Mean, U87-MG ([1]; 4 hours) | Cell uptake, Mean, U87-MG ([1]; 24 hours) | Cell uptake, Mean, B16F10 ([2]; 1 hour) | Cell uptake, Mean, B16F10 ([2]; 4 hours) | Cell uptake, Mean, NIH-3T3 ([3]; 1 hour) | Cell uptake, Mean, NIH-3T3 ([3]; 4 hours) | Cell uptake, Mean, SAS ([4]; 1 hour) | Cell uptake, Mean, SAS ([4]; 4 hours) | Cell uptake, Mean, SAS ([4]; 24 hours) | Cell uptake, Mean, B16F10 ([2]; 24 hours) | Cell uptake, Mean, NIH-3T3 ([3]; 24 hours)
NC(Cc1ccc(CCB(O)O)cc1F)C(=O)O (single isomer, unassigned) [compound 8, (S*)-2-amino-3-(4-(2-boronoethyl)-2-fluorophenyl)propanoic acid] | 16.7 ng/10^6 cell | 31.1 ng/10^6 cell | 16.3 ng/10^6 cell | 26.9 ng/10^6 cell | 31.4 ng/10^6 cell | 14.7 ng/10^6 cell | 26.4 ng/10^6 cell | 44.6 ng/10^6 cell | 66.7 ng/10^6 cell | 359 ng/10^6 cell |  | 
NC(Cc1ccc(CCB(O)O)cc1F)C(=O)O (single isomer, unassigned) [compound 9, (R*)-2-amino-3-(4-(2-boronoethyl)-2-fluorophenyl)propanoic acid] | 90.1 ng/10^6 cell |  | 74.6 ng/10^6 cell |  | 66.7 ng/10^6 cell | 34.4 ng/10^6 cell | 43.0 ng/10^6 cell | 129 ng/10^6 cell | 103 ng/10^6 cell | 211 ng/10^6 cell | 119 ng/10^6 cell | 37.2 ng/10^6 cell
N[C@@H](Cc1cccc(OCB(O)O)c1)C(=O)O [compound 1, (S)-2-amino-3-(3-(boronomethoxy)phenyl)propanoic acid] | 227 ng/10^6 cell | 233 ng/10^6 cell | 336 ng/10^6 cell | 112 ng/10^6 cell | 232 ng/10^6 cell | 127 ng/10^6 cell | 194 ng/10^6 cell |  | 755 ng/10^6 cell | 828 ng/10^6 cell | 517 ng/10^6 cell | 133 ng/10^6 cell
N[C@@H](Cc1ccc(OCB(O)O)cc1F)C(=O)O [compound 2, (S)-2-amino-3-(4-(boronomethoxy)-2-fluorophenyl)propanoic acid] | 123 ng/10^6 cell |  | 626 ng/10^6 cell | 151 ng/10^6 cell | 333 ng/10^6 cell |  |  | 1125 ng/10^6 cell | 1590 ng/10^6 cell | 1595 ng/10^6 cell | 881 ng/10^6 cell | 205 ng/10^6 cell
N[C@@H](Cc1ccc(OCCB(O)O)cc1)C(=O)O [compound 3, (2S)-2-amino-3-{4-[2-(dihydroxyboranyl)ethoxy]phenyl}propanoic acid] | 197 ng/10^6 cell | 211 ng/10^6 cell | 183 ng/10^6 cell | 145 ng/10^6 cell | 222 ng/10^6 cell | 132 ng/10^6 cell | 138 ng/10^6 cell | 534 ng/10^6 cell | 499 ng/10^6 cell |  | 117 ng/10^6 cell | 
NC(Cc1ccc(OCB(O)O)cc1)C(=O)O (centres unmarked) [compound 4, 2-amino-3-{4-[(dihydroxyboranyl)methoxy]phenyl}propanoic acid] | 42.8 ng/10^6 cell | 113 ng/10^6 cell | 191 ng/10^6 cell | 46.1 ng/10^6 cell | 95.6 ng/10^6 cell | 27.1 ng/10^6 cell | 58.6 ng/10^6 cell | 445 ng/10^6 cell | 495 ng/10^6 cell | 997 ng/10^6 cell | 101 ng/10^6 cell | 66.6 ng/10^6 cell
N[C@@H](Cc1cccc(CCB(O)O)c1)C(=O)O [compound 5, (S)-2-amino-3-(3-(2-boronoethyl)phenyl)propanoic acid] |  |  |  |  | 157 ng/10^6 cell | 171 ng/10^6 cell | 77.2 ng/10^6 cell |  | 225 ng/10^6 cell | 214 ng/10^6 cell | 262 ng/10^6 cell | 
N[C@@H](Cc1ccc(OCCB(O)O)cc1F)C(=O)O [compound 6, (2S)-2-amino-3-{4-[2-(dihydroxyboranyl)ethoxy]-2-fluorophenyl}propanoic acid] | 160 ng/10^6 cell | 137 ng/10^6 cell |  |  | 92.3 ng/10^6 cell | 53.4 ng/10^6 cell | 23.2 ng/10^6 cell | 152 ng/10^6 cell | 106 ng/10^6 cell | 46.0 ng/10^6 cell |  | 
N[C@@H](Cc1ccc(OCB(O)O)c(F)c1)C(=O)O [compound 10, (2S)-2-amino-3-{4-[(dihydroxyboranyl)methoxy]-3-fluorophenyl}propanoic acid] | 295 ng/10^6 cell | 673 ng/10^6 cell | 681 ng/10^6 cell |  | 442 ng/10^6 cell | 81.9 ng/10^6 cell | 204 ng/10^6 cell | 1285 ng/10^6 cell | 1850 ng/10^6 cell |  | 814 ng/10^6 cell | 
N[C@@H](Cc1ccc(F)c(OCB(O)O)c1)C(=O)O [compound 11, (2S)-2-amino-3-{3-[(dihydroxyboranyl)methoxy]-4-fluorophenyl}propanoic acid] | 113 ng/10^6 cell | 322 ng/10^6 cell | 309 ng/10^6 cell | 50.6 ng/10^6 cell | 121 ng/10^6 cell | 32.4 ng/10^6 cell | 92.8 ng/10^6 cell | 529 ng/10^6 cell | 454 ng/10^6 cell | 999 ng/10^6 cell | 202 ng/10^6 cell | 122 ng/10^6 cell
N[C@@H](Cc1cccc(C2(B(O)O)CC2)c1)C(=O)O [compound 14, (2S)-2-amino-3-{3-[1-(dihydroxyboranyl)cyclopropyl]phenyl}propanoic acid] |  |  |  |  |  |  | 444 ng/10^6 cell |  |  |  |  | 
